From patent US20220153766A1, “CONDENSED TRICYCLIC COMPOUND USED AS KINASE INHIBITOR” (Hangzhou Innogate Pharma Co., Ltd., priority 2019, published 2022)

Columns and labels:
ALK = ALK (Homo sapiens, UniProt Q9UM73); experiment: ALK kinase activity inhibition, Caliper mobility shift assay, method 1; assay type: biochemical
Procedure: 2. ALK Kinase Activity Inhibition Experiment: Method 1: In vitro enzymatic activity of ALK was measured using Caliper mobility shift assay. […] Add 10 μL of 2.5-fold enzyme solution and incubate at room temperature for 10 minutes, then add 10 μL of 2.5-fold substrates (Peptide FAM-P22 and ATP) solution. […] Read conversion rate data on Caliper EZ Reader II (Caliper Life Sciences). Convert the conversion rate into inhibition rate (% inhibition=(max−conversion rate)/(max−min)*100). Max refers to the conversion rate of the DMSO control, and min refers to the conversion rate without enzyme activity. With the compound concentration and inhibition rate on the abscissa and ordinate, draw the curve, use XLFit excel add-in version 5.4.0.8 software to fit the curve and calculate the IC50.

EGFR (C797S) = EGFR (C797S) (Homo sapiens, UniProt P00533, C797S); experiment: EGFR (C797S) kinase activity inhibition, Lantha screen Assay; assay type: biochemical; conditions: kinase 10 nM, ATP 0.1 μM
EGFR (C797S), sequence (P00533 25-1210 C797S): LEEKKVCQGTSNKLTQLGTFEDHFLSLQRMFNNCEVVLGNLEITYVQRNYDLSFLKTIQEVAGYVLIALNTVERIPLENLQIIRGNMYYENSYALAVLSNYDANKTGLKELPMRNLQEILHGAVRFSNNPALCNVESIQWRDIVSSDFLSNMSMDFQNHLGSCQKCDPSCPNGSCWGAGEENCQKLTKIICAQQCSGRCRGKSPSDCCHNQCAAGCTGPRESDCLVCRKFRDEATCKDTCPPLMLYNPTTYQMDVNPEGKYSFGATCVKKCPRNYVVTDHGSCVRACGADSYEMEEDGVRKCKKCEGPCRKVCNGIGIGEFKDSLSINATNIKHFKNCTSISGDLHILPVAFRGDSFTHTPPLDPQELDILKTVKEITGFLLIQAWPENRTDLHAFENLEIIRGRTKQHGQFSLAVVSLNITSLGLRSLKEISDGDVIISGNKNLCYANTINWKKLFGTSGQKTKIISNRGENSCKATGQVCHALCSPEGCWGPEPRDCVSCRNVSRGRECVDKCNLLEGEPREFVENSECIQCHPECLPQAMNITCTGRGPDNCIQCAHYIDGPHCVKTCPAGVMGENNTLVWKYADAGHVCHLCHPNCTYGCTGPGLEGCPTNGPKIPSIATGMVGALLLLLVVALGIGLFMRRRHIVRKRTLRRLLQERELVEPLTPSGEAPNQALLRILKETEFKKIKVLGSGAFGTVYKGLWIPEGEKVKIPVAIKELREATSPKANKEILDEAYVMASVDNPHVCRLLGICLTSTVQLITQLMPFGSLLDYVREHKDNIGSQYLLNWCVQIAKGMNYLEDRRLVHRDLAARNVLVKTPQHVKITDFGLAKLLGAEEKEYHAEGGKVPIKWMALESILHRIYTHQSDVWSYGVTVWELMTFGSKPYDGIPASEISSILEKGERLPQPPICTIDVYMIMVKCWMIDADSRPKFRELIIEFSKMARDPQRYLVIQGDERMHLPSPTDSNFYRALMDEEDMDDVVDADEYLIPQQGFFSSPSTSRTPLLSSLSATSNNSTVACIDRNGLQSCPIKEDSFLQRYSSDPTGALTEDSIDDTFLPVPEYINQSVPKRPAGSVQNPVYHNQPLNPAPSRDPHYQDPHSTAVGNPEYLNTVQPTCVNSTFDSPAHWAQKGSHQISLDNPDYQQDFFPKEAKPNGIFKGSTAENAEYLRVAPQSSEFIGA
Procedure: 1. EGFR (C797S) Kinase Activity Inhibition Experiment: The Lantha screen Assay method was used to test the inhibitory activity of the compounds at a kinase EGFR (C797S) concentration of 10 nM and an ATP concentration of 0.1 μM. The control samples were Staurosporine. Experimental Steps: […] 2) Control sample Staurosporine and test samples preparation: Staurosporine and the compounds of the embodiment of the present invention are formulated into a gradient concentration solution in 100% DMSO, and diluted to 10% DMSO with the above-mentioned buffer, and added to a 384-well plate. For example, if the initial concentration of the compound is 10 μM, 100% DMSO is used to prepare a 1000 μM solution, and 10 concentration gradients are diluted, and 100 nL solution is transferred to a 384-well plate with Echo*LIQUID HANDLE RS (LABCYTE, USA). […] Transfer 5 μL to the 384-well plate and incubate with the compound for 10-15 minutes. […] Transfer 5 μL to the 384-well plate to initiate the reaction, and incubate at room temperature for 30 minutes. [table] 5) Use TR-Fret dilution buffer to prepare 2-fold detection solution. The final concentration of Antibody is 2 nM and the final concentration of EDTA is 10 mM. Transfer 10 μL of detection solution to the reaction wells of the 384-well plate, shake and mix, and incubate at room temperature for 60 min. 6) Read the ratio of excitation at 340 nm and emission at 520 nm to 495 nm on Envision, and calculate the inhibition rate. 7) Fit IC50 with XL-fit software.

[1] = target: Ba/F3_EGFR del19/T790M/C797S cells (Homo sapiens, UniProt P00533, T790M/C797S, cells depend on it, form not given); experiment: Ba/F3_EGFR (del19-T790M-C797S) cell proliferation inhibition, CTG, method 1; assay type: cell-based; conditions: 700 cells/well, 72 h, read-out: Ba/F3_EGFR (del19-T790M-C797S) cell proliferation inhibition (IC50 value) Method 1
Ba/F3_EGFR del19/T790M/C797S cells, sequence (P00533 with tags, fused parts or gaps DEL746-750/T790M/C797S, form open): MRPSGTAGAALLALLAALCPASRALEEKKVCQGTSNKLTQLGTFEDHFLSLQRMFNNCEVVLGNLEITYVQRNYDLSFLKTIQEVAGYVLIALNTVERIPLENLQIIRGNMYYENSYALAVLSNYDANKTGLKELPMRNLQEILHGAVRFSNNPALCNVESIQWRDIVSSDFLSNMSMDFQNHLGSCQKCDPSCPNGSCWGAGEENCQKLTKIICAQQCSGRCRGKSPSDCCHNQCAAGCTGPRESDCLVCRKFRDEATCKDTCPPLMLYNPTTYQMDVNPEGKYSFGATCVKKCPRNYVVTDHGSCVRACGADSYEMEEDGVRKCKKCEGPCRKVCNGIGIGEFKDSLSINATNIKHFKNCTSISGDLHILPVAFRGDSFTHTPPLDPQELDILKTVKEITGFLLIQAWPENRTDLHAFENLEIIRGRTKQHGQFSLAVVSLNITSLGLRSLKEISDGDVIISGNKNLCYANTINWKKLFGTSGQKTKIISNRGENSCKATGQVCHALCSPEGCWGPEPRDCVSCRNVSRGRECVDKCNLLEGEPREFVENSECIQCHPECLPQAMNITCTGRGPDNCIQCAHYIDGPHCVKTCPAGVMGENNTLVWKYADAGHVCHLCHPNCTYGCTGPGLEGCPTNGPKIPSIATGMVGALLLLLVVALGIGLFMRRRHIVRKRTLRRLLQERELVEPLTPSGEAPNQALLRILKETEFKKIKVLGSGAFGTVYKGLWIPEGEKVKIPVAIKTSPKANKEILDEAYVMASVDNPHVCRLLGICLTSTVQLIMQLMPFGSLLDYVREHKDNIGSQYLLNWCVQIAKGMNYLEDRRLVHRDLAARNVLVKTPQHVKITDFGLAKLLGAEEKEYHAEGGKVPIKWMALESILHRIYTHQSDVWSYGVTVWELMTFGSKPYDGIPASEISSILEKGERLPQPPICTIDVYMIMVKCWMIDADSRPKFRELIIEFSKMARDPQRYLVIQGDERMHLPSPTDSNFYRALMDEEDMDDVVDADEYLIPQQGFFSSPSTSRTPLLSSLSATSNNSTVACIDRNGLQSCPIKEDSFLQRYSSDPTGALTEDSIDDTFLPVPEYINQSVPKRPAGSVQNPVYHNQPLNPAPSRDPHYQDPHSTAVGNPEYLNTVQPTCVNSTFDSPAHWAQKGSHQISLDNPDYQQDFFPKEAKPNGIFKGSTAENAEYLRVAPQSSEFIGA
Procedure: The cells were cultured in a 37° C., 5% CO2 incubator.
Cell plating and compound treatment: 1) Cells are routinely cultured until the cell saturation is 80%-90%, and when the number reaches the requirement, the cells are collected. 2) Resuspend in the corresponding fresh medium, take a small amount of cells to count, and prepare a cell suspension with a suitable density. 3) Inoculate the cell suspension into a 384-well plate at 700 cells/well, 30 μL per well. 4) Use Echo to add the compound to the corresponding cell well. The maximum starting concentration of the compound is 1-10 μM, 3 folds dilution, 8 concentrations.
CTG method detection: 1) Add 30 μL of CTG reagent (CelltiterGlo kit) to each well, and let it stand for 30 minutes at 37° C. and 5% CO2 in the dark. 2) Use Envision instrument to read the chemiluminescence signal value.
Data analysis: IC50 results are analyzed by GraphPad Prism 6 software. […] X: log value of compound concentration; Y: inhibition rate (% inhibition); inhibition rate (% inhibition)=(blank control well reading−compound well reading)/(blank control well reading−positive control reading)×100.

[2] = Pharmacokinetic study in rats after intragastrical administration; assay type: in vivo; conditions: male, rat, plasma, po, SD rats, 4 mg/kg
Procedure: Example 55: Pharmacokinetic Study in Rats
Instruments: XEVO TQ-S LC/MS instrument produced by Waters. All measurement data is collected and processed by Masslynx V4.1 software, and the data is calculated and processed by Microsoft Excel. Using WinNonLin 8.0 software, the statistical moment method was used to calculate the pharmacokinetic parameters. Mainly include kinetic parameters Tmax, T1/2, Cmax, AUClast etc. […] Injection volume: 5 μL.
Animals: 3 male SD rats with a weight range of 200-220 g. After purchase, they will be kept in the laboratory of the Experimental Animal Center for 2 days and then used. They will be fasted for 12 hours predose and 4 hours after dosing. Drinking water is free during the test. After the rats were gavage, blood samples were taken according to the established time point.
Solvent: 0.5% Methylcellulose (aqueous solution containing 0.4% Tween 80 and 1% ethanol). Preparation of the solution for intragastrical administration: accurately weigh the compound, add it to the solvent, and ultrasonically at room temperature for 5 minutes to completely dissolve the drug, and prepare a 0.3 mg/ml medicinal solution.
Pharmaceutical samples: representative compounds of the structure shown in the patented formula (I) of the present invention, generally, multiple samples with similar structures (with a molecular weight difference of more than 2 units) are taken, accurately weighed, and administered together (cassette PK). In this way, multiple compounds can be screened at the same time and their oral absorption rates can be compared. A single administration was also used to study the pharmacokinetics of the drug sample in rats.
After intragastrical administration, blood was taken from the orbit at 0.25, 0.5, 1, 2, 4, 9, 12 and 24 hours, and placed in a plastic centrifuge tube pretreated with sodium heparin. After centrifugation, the supernatant plasma was used for LC-MS/MS analysis.
Accurately weigh the compounds to prepare different concentrations, perform quantitative analysis on mass spectrometry to establish a standard curve, and then test the concentration of the above-mentioned compound in the plasma to obtain the compound concentration at different time points. All measurement data are collected and processed by relevant software, and the statistical moment method is used to calculate the pharmacokinetic parameters (mainly including kinetic parameters Tmax, T1/2, Cmax, AUClast etc). The results are as follows:
Table 7: Pharmacokinetic Parameters of the Compounds after Intragastrical Administration in SD Rats

MAP4K1 (HPK1) = MAP4K1 (HPK1) (Homo sapiens, UniProt Q92918); experiment: MAP4K1 (HPK1) kinase activity inhibition, Caliper mobility shift assay; assay type: biochemical; conditions: kinase 1.25 nM, ATP 10.1 μM
MAP4K1 (HPK1), sequence (Q92918 whole entry): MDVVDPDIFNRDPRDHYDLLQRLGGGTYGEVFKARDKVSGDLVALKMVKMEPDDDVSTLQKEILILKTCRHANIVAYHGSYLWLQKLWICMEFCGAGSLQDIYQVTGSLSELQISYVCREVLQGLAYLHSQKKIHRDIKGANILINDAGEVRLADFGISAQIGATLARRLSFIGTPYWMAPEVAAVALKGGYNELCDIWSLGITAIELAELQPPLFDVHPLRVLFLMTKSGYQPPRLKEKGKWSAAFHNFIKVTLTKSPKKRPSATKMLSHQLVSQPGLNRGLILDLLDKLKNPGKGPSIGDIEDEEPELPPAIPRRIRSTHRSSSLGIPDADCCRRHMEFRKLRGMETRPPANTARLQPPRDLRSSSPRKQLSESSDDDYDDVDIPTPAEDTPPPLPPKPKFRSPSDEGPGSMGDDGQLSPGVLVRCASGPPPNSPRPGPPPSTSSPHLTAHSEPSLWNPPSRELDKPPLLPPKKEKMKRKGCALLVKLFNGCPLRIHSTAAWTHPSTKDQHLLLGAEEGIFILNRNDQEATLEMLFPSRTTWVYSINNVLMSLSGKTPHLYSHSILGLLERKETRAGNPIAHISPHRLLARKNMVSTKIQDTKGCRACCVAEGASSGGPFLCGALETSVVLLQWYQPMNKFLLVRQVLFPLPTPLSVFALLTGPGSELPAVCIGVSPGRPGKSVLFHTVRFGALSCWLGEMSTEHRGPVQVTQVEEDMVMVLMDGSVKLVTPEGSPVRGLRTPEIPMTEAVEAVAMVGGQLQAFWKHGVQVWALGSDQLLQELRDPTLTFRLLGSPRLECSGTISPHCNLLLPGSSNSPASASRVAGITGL
Procedure: 4. MAP4K1 (HPK1) Kinase Activity Inhibition Experiment: Caliper mobility shift assay was used to detect the inhibitory effect of the compound on MAP4K1 (HPK1) kinase activity. The test concentration of the compound starts at 500 nM, and is diluted 5 folds into 5 concentration points. Use a dispenser Echo 550 to transfer 250 nL 100-fold final concentration of the compound to the target plate 3573, add 10 μL of MAP4K1 (HPK1) kinase solution with a final concentration of 1.25 nM, and incubate for 10 minutes at room temperature (the negative control well contains 10 μL kinase buffer and 250 nL 100% DMSO; the positive control well contains 10 μL kinase solution and 250 nL 100% DMSO). On the kinase MAP4K1 (HPK1), add 15 μL of ATP with a final concentration of 10.1 μM and 3 μM substrate peptide No. 25 mixed solution to react for 120 minutes. Add 30 μL of stop solution containing EDTA to stop the kinase reaction. Use Caliper EZ Reader to read the conversion rate. Inhibition rate %=(Average positive control conversion rate %−Sample conversion rate %/(Average positive control conversion rate %−Average negative control conversion rate %). Among them: negative control wells represent the conversion rate readings without enzyme activity; positive control wells represent the conversion rate readings of wells without compound inhibition. Take the log value of the concentration as the X-axis, and the percentage inhibition rate on the Y-axis. Log (inhibitor) vs. response—Variable slope of analysis software GraphPad Prism 5 was used to fit the curve to obtain the IC50 value of each compound on the enzyme activity. Calculation formula: Y=Bottom+(Top−Bottom)/(1+10 ^((Log IC50−X)*HillSlope)).

ALK, sequence (Q9UM73 19-1620): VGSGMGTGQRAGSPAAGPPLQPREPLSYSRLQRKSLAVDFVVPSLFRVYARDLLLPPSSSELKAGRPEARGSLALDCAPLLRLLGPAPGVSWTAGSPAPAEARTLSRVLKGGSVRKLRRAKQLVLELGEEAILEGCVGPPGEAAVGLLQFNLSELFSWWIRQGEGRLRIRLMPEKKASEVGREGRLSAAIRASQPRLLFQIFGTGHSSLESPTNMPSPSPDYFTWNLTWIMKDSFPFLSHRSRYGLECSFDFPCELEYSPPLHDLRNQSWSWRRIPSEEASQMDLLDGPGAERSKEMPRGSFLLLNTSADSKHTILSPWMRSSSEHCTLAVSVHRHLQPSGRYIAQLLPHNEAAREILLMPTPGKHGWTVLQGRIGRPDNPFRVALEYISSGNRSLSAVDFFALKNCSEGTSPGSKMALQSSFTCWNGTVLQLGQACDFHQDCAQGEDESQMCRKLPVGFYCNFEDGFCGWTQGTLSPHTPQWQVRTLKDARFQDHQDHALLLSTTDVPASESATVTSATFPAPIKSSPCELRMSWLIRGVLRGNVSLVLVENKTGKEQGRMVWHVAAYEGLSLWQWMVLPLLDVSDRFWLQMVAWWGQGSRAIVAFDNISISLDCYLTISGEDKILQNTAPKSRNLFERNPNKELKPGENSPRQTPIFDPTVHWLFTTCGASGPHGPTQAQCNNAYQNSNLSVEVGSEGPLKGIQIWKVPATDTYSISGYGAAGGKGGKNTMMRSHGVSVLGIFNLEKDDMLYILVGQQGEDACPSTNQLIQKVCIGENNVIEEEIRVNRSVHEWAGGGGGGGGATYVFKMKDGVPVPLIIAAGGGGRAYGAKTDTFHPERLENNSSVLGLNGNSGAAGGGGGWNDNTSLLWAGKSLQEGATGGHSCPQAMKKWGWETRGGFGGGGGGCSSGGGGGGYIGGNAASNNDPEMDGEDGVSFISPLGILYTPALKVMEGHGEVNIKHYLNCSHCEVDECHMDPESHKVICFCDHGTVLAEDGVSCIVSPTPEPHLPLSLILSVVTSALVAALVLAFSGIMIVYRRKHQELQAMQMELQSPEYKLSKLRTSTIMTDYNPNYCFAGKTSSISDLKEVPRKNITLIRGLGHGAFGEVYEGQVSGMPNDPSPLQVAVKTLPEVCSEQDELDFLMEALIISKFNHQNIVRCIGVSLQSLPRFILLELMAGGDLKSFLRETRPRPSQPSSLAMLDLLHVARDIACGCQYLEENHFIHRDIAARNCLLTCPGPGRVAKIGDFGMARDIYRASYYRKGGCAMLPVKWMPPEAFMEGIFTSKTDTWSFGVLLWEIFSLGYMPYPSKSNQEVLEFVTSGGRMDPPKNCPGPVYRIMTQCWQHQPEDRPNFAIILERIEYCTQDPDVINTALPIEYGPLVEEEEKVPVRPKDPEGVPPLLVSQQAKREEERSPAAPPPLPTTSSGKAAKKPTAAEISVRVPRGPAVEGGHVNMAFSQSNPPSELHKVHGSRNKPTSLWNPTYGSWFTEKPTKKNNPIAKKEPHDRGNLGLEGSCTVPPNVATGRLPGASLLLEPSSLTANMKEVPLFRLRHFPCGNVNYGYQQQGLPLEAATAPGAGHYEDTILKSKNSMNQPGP

IC50 (ALK) [nM]	IC50 (EGFR (C797S)) [nM]	GI50 [1] [nM]	Compound	other results
50 to 250	50 to 250	20 to 100	CP(C)(=O)c1ccccc1Nc1nc(Nc2ccc3c(c2)OC[C@H]2CN(CC(F)(F)F)CCN32)ncc1Cl [Compound 13R]	
		20 to 100	COCCCC(=O)N1CCN2c3ccc(Nc4ncc(Cl)c(Nc5ccccc5P(C)(C)=O)n4)cc3OC[C@H]2C1 [Compound 28R]	
1 to 50	1 to 50	20 to 100	COCCN1CCN2c3ccc(Nc4ncc(Cl)c(Nc5ccccc5P(C)(C)=O)n4)cc3OC[C@H]2C1 [Compound 10R]	
1 to 50	1 to 50	20 to 100	C=CC(=O)N1CCN2c3ccc(Nc4ncc(Cl)c(Nc5ccccc5P(C)(C)=O)n4)cc3OC[C@@H]2C1 [Compound 6S]	
1 to 50	50 to 250	100 to 200	CC(=O)N1CCN2c3ccc(Nc4ncc(Cl)c(Nc5ccccc5P(C)(C)=O)n4)cc3OC[C@H]2C1 [Compound 5R]	
		< 20	C#CC(=O)N1CCN2c3ccc(Nc4ncc(Cl)c(Nc5ccccc5P(C)(C)=O)n4)cc3OC[C@H]2C1 [Compound 17R]	
1 to 50	1 to 50	< 20	CN1CCN2c3ccc(Nc4ncc(Cl)c(Nc5ccccc5P(C)(C)=O)n4)cc3OC[C@H]2C1 [Compound 1R]	Cmax [2]: 23.1 ng/mL; Tmax [2]: 1.08 h; half-life [2]: 12.7 h; AUC(0-t) ([2]; read-out: AUC0-24 h): 102 ng·h/mL
1 to 50	1 to 50	20 to 100	CP(C)(=O)c1ccccc1Nc1nc(Nc2ccc3c(c2)OC[C@H]2CN(C4CCOCC4)CCN32)ncc1Cl [Compound 3R]	
1 to 50	1 to 50	20 to 100	CP(C)(=O)c1ccccc1Nc1nc(Nc2ccc3c(c2)OC[C@H]2CNCCN32)ncc1Cl [Compound 4R]	
1 to 50	1 to 50		CN1CCN2c3ccc(Nc4ncc(Cl)c(Nc5ccccc5P(C)(C)=O)n4)cc3OCC2C1 (racemic) [Compound 1]	
		< 20	C=CS(=O)(=O)N1CCN2c3ccc(Nc4ncc(Cl)c(Nc5ccccc5P(C)(C)=O)n4)cc3OC[C@H]2C1 [Compound 19R]	IC50 (MAP4K1 (HPK1)): ≤ 1 nM
1 to 50	50 to 250	20 to 100	C=CC(=O)N1CCN2c3ccc(Nc4ncc(Cl)c(Nc5ccccc5P(C)(C)=O)n4)cc3OC[C@H]2C1 [Compound 6R]	
1 to 50	1 to 50	20 to 100	CP(C)(=O)c1ccccc1Nc1nc(Nc2ccc3c(c2)OC[C@@H]2CNCCN32)ncc1Cl [Compound 4S]	
50 to 250	50 to 250		CP(C)(=O)c1ccccc1Nc1nc(Nc2ccc3c(c2)OC[C@H]2CN(c4cccnc4)CCN32)ncc1Cl [Compound 15R]	IC50 (MAP4K1 (HPK1)): 1 to 10 nM
		20 to 100	Cc1cc(Nc2ncc(Cl)c(Nc3ccccc3P(C)(C)=O)n2)cc2c1N1CCNC[C@@H]1CO2 [Compound 23R]	
1 to 50	1 to 50	< 20	CN1CCC(N2CCN3c4ccc(Nc5ncc(Cl)c(Nc6ccccc6P(C)(C)=O)n5)cc4OC[C@H]3C2)CC1 [Compound 11R]	
1 to 50	50 to 250	20 to 100	CP(C)(=O)c1ccccc1Nc1nc(Nc2ccc3c(c2)OC[C@H]2CN(S(=O)(=O)C4CC4)CCN32)ncc1Cl [Compound 2R]	
1 to 50	50 to 250		CP(C)(=O)c1ccccc1Nc1nc(Nc2ccc3c(c2)OC[C@H]2CN(CCO)CCN32)ncc1Cl [Compound 7R]	
		20 to 100	COC/C=C/C(=O)N1CCN2c3ccc(Nc4ncc(Cl)c(Nc5ccccc5P(C)(C)=O)n4)cc3OC[C@H]2C1 [Compound 20R]	
50 to 250	50 to 250	100 to 200	CN(C)CCN1CCN2c3ccc(Nc4ncc(Cl)c(Nc5ccccc5P(C)(C)=O)n4)cc3OC[C@H]2C1 [Compound 14R]	IC50 (MAP4K1 (HPK1)): 1 to 10 nM
1 to 50	1 to 50	< 20	CN1CCN2c3ccc(Nc4ncc(Cl)c(Nc5ccccc5P(C)(C)=O)n4)cc3OC[C@@H]2C1 [Compound 1S]	
1 to 50	1 to 50	20 to 100	CCN1CCN2c3ccc(Nc4ncc(Cl)c(Nc5ccccc5P(C)(C)=O)n4)cc3OC[C@H]2C1 [Compound 8R]	
1 to 50	250 to 1000	20 to 100	CP(C)(=O)c1ccccc1Nc1nc(Nc2ccc3c(c2)OC[C@H]2CN(CC#N)CCN32)ncc1Cl [Compound 9R]	
		20 to 100	Cc1cc(Nc2ncc(Cl)c(Nc3ccccc3P(C)(C)=O)n2)cc2c1OC[C@@H]1CNCCN21 [Compound 24S]	
1 to 50	50 to 250		CP(C)(=O)c1ccccc1Nc1nc(Nc2ccc3c(c2)OC[C@@H]2COCCN32)ncc1Cl [Compound 12S]	
